Measured values published in patent publication US12617777B2, “GPR84 antagonists and uses thereof” (Liminal BioSciences Limited, priority 2021, dated 2026).

Key:
neutrophils = assay: Neutrophil migration assay (embelin as chemotactic agent, ATPlite readout); type: cell-based; conditions: for IC50: Neutrophil, human neutrophils, embelin as chemotactic agent, read-out: Human Neutrophil migration inhibition IC50; for Human Neutrophil migration inhibition - fold potency to Control Compound: normalized to GPR84 antagonist Control Compound (average IC50 131 nM)
Method: Neutrophil migration assay. After isolation, neutrophils were resuspended in chemotaxis buffer (DMEM supplemented with 10 mM HEPES) at a concentration of 8.9×10^6 cells/ml. In a 96-well plate, 20 μl of compound solution in chemotaxis buffer is added to 180 μl of cell suspension. After incubation at 37° C. for 30 minutes, 75 μl of cell suspension is transferred in the upper chamber of a 5 μm pore size Corning HTS transwell. 235 μl of chemotaxis buffer containing the chemotactic agent (embelin) is added to the lower chamber of the transwell. After a 60-minute incubation time at 37° C. in 5%0 C02, the upper chamber of the transwell is removed and the plate is centrifuged at 1500 rpm for 6 minutes. Supermatant is removed and cells resuspended in 100 ul of PBS. ATP content was assessed using ATPlite Luminescence Assay System® according to manufacturer instructions (Perkin Elmer, Buckinghamshire, UK). Briefly, 50 μl of ATPlite buffer and 50 μl of lysis solution is added to the lower chamber of the Transwells. After incubation at room temperature, in the dark with constant agitation for 5 minutes, 150 μl of cell lysate is transferred in a 96 wells white plate and incubated for 10 minutes in the dark. Luminescence is read on a TECAN plate reader, Infinite M1000 (Tecan, Morrisville, NC).
The compound numbers correspond to the compound numbers in Table 1. […] Normalization of the results takes the donor's variation into account.

human GPR84 receptor = molecular target: T1, human GPR84 receptor (Homo sapiens, UniProt Q9NQS5); assay: Gαi biosensor BRET assay in HEK293 cells (antagonism of ZQ-16); type: cell-based; conditions: for inhibition at 10 µM: HEK293, single concentration 10 μM (designated F); for IC50: HEK293 cells, antagonism of 200 nmol/L ZQ-16; for inhibition at 25 µM: HEK293, single concentration 25 μM (designated I); for inhibition at 2 µM: HEK293, single concentration 2 μM (designated A)
T1 construct: host or cells: HEK293, transient transfection
Method in brief: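 HEK293 cells transiently expressing human GPR84, Gαi2-Rluc8, GFP10-Gγ2 and Gβ1, in Tyrode's buffer pH 7.5. Compounds preincubated 5 min at 37° C, then 200 nmol/L ZQ-16 for 5 min at room temperature; coelenterazine 400A 5 μmol/L. BRET2 acceptor/donor ratio, background- and vehicle-corrected net BRET.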

T1 sequence (Q9NQS5 whole entry): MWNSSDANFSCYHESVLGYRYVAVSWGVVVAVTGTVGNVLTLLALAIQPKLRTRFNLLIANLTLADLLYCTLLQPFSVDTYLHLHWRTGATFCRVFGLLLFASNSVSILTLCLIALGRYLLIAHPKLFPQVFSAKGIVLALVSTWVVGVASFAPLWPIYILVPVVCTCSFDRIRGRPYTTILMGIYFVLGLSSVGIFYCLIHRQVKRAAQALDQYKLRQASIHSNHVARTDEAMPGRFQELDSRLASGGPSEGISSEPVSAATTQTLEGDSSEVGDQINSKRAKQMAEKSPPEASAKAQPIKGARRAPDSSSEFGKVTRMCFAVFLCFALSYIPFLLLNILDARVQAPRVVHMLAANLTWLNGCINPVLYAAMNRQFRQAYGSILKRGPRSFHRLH

Compound	IC50 (neutrophils)	Human Neutrophil migration inhibition - fold potency to Control Compound (neutrophils)	inhibition at 10 µM (human GPR84 receptor)	IC50 (human GPR84 receptor)	inhibition at 25 µM (human GPR84 receptor)	inhibition at 15 µM (human GPR84 receptor; HEK293, single concentration 15 μM (designated H))	inhibition at 5 µM (human GPR84 receptor; HEK293, single concentration 5 μM (designated D))	inhibition at 2 µM (human GPR84 receptor)
FC(F)(F)c1cc(C#CC2CC2)ccc1-c1cn(CC2CCCCO2)nn1 (centres unmarked) [Compound I-81]	300 to 1000 nM	C (IC50≤0.5-fold relative to Control Compound)	50 to 75%	> 3000 nM	–	–	–	–
Cc1cc(C#CCNCc2ccccc2)ccc1-c1cn(CC2CCCCO2)nn1 (centres unmarked) [Compound I-86]	300 to 1000 nM	C (IC50≤0.5-fold relative to Control Compound)	–	300 to 1000 nM	–	–	–	–
Cc1cc(N2CC(C)(NCc3ccccn3)C2)ccc1-c1cn(CC2CCCCO2)nn1 (centres unmarked) [Compound I-441]	≤ 300 nM	A (IC50 of >1.0-fold relative to Control Compound)	50 to 75%	1000 to 3000 nM	–	–	–	–
Cc1ccc(C#CC2CC2)cc1-c1nnn(CC2CCCCO2)n1 (centres unmarked) [Compound I-7]	> 3000 nM	C (IC50≤0.5-fold relative to Control Compound)	–	> 3000 nM	> 75%	–	–	–
Cc1cc(N2CC(C)(C)C2)ccc1-c1cn(CC2CCCCO2)nn1 (centres unmarked) [Compound I-75]	≤ 300 nM	B (IC50 of >0.5-≤1.0-fold relative to Control Compound)	–	300 to 1000 nM	> 75%	–	–	–
Cc1cc(C#CC(C)(C)O)ccc1-c1cn(CC2CCCCO2)nn1 (centres unmarked) [Compound I-79]	300 to 1000 nM	C (IC50≤0.5-fold relative to Control Compound)	–	> 3000 nM	–	> 75%	–	–
CN(C)c1cc(N2CC(C)(CO)C2)ccc1-c1cn(CC2CC(C)(C)CO2)nn1 (centres unmarked) [Compound I-499]	≤ 300 nM	A (IC50 of >1.0-fold relative to Control Compound)	> 75%	300 to 1000 nM	–	–	–	–
Cc1cc(C#CCNc2ccccc2)ccc1-c1cn(CC2CCCCO2)nn1 (centres unmarked) [Compound I-68]	300 to 1000 nM	B (IC50 of >0.5-≤1.0-fold relative to Control Compound)	–	1000 to 3000 nM	–	–	50 to 75%	–
CC(C)c1cc(C#CC2CC2)ccc1-c1cn(CC2CCCCO2)nn1 (centres unmarked) [Compound I-88]	1000 to 3000 nM	C (IC50≤0.5-fold relative to Control Compound)	–	1000 to 3000 nM	–	–	–	–
CCc1cc(C#CCNC(=O)OC(C)(C)C)ccc1-c1cn(CC2CCCCO2)nn1 (centres unmarked) [Compound I-572]	≤ 300 nM	A (IC50 of >1.0-fold relative to Control Compound)	> 75%	300 to 1000 nM	–	–	–	–
CN(C)c1cc(C#CCNCc2ccccc2)ccc1-c1cn(CC2CCCCO2)nn1 (centres unmarked) [Compound I-188]	≤ 300 nM	A (IC50 of >1.0-fold relative to Control Compound)	–	> 3000 nM	–	–	–	–
CC(C)Oc1cc(C#CC2CC2)ccc1-c1cn(CC2CCCCO2)nn1 (centres unmarked) [Compound I-187]	≤ 300 nM	B (IC50 of >0.5-≤1.0-fold relative to Control Compound)	–	> 3000 nM	–	–	–	–
CN(C)c1cc(C#CCNc2ccccc2)ccc1-c1cn(CC2CC(C)(C)CO2)nn1 (centres unmarked) [Compound I-460]	≤ 300 nM	A (IC50 of >1.0-fold relative to Control Compound)	> 75%	300 to 1000 nM	–	–	–	–
Cc1ccc(C#CC2CC2)cc1-n1nc(CC2CCCCO2)oc1=O (centres unmarked) [Compound I-14]	≤ 300 nM	A (IC50 of >1.0-fold relative to Control Compound)	> 75%	1000 to 3000 nM	–	–	–	–
Cc1cc(C#CCN2CCN(c3ccccc3)CC2)ccc1-c1cn(CC2CCCCO2)nn1 (centres unmarked) [Compound I-120]	≤ 300 nM	B (IC50 of >0.5-≤1.0-fold relative to Control Compound)	–	≤ 300 nM	–	–	–	–
Cc1cc(C#CC(C)C)ccc1-c1cn(CC2CCCCO2)nn1 (centres unmarked) [Compound I-66]	1000 to 3000 nM	C (IC50≤0.5-fold relative to Control Compound)	–	> 3000 nM	–	–	–	–
Cc1cc(C#CC2CC2)cnc1-c1cn(CC2CCCCO2)nn1 (centres unmarked) [Compound I-107]	≤ 300 nM	A (IC50 of >1.0-fold relative to Control Compound)	> 75%	1000 to 3000 nM	–	–	–	–
CCc1cc(C#CCO)ccc1-c1cn(CC2OCC(C)(C)CO2)nn1 [Compound I-620]	≤ 300 nM	A (IC50 of >1.0-fold relative to Control Compound)	> 75%	≤ 300 nM	–	–	–	–
CO[C@@H](c1cn(C[C@H]2CCCCO2)nn1)c1cc(C#CC2CC2)ccc1C [Compound I-510]	≤ 300 nM	B (IC50 of >0.5-≤1.0-fold relative to Control Compound)	–	300 to 1000 nM	–	–	–	50 to 75%
CC(C)Oc1cc(C#CC2CC2)cnc1-c1cn(CC2OCC(C)(C)CO2)nn1 [Compound I-651]	≤ 300 nM	A (IC50 of >1.0-fold relative to Control Compound)	–	≤ 300 nM	–	–	–	> 75%
CC(C)Oc1cc(C#CC2CC2)cnc1-c1cn(CC2CCCCO2)nn1 (centres unmarked) [Compound I-478]	≤ 300 nM	B (IC50 of >0.5-≤1.0-fold relative to Control Compound)	> 75%	≤ 300 nM	–	–	–	–
Cc1cc(C#CCN2CC(C)(C)C2)ccc1-c1cn(CC2CCCCO2)nn1 (centres unmarked) [Compound I-119]	300 to 1000 nM	C (IC50≤0.5-fold relative to Control Compound)	–	1000 to 3000 nM	–	–	–	–
CO[C@H](c1cn(C[C@H]2CCCCO2)nn1)c1cc(C#CC2CC2)ccc1C [Compound I-511]	≤ 300 nM	A (IC50 of >1.0-fold relative to Control Compound)	–	≤ 300 nM	–	–	–	> 75%
CCc1cc(C#CCNc2cccnc2)cnc1-c1cn(C[C@H]2CCCCO2)nn1 [Compound I-535]	≤ 300 nM	B (IC50 of >0.5-≤1.0-fold relative to Control Compound)	> 75%	≤ 300 nM	–	–	–	–
Clc1cc(C#CC2CC2)ccc1-c1cn(CC2CCCCO2)nn1 (centres unmarked) [Compound I-315]	300 to 1000 nM	C (IC50≤0.5-fold relative to Control Compound)	–	> 3000 nM	> 75%	–	–	–
Cc1cc(N2CCN([C@@H](C)c3ccccn3)CC2)ccc1-c1cn(C[C@H]2CCCCO2)nn1 [Compound I-612]	≤ 300 nM	A (IC50 of >1.0-fold relative to Control Compound)	> 75%	300 to 1000 nM	–	–	–	–
CC(C)Oc1cc(C#CC2CC(F)(F)C2)cnc1-c1cn(CC2OCC(C)(C)CO2)nn1 [Compound I-650]	≤ 300 nM	A (IC50 of >1.0-fold relative to Control Compound)	–	300 to 1000 nM	–	–	–	> 75%
